The values that follow come from patent publication US20250345295A1, “LMK235 COMPOSITIONS AND METHODS” (UNM Rainforest Innovations, priority 2024, published 2025).

“Also recorded” adds a separate entry of the source.

Experiment [1] concerns small (<30 μm) TG neurons from FRICT-ION mice. Description: Whole-cell patch-clamp electrophysiology, TG neurons from FRICT-ION mice. The class given is cell-based, mouse. As to conditions: 13 μM for one hour vs 0.1% DMSO. On the procedure: (§1) The excitability of TG neurons is directly linked to the pathophysiology of trigeminal neuropathic pain. In order to determine the effect of LMK235 on TG neurons from FRICT-ION mice, whole-cell patch-clamp electrophysiological recordings were made from small (<30 μm) TG neurons in the presence of LMK235 (13 μM) or vehicle (0.1% DMSO). TG neurons were obtained from FRICT-ION mice at three weeks post injury or naïve mice. The TG neurons were treated for one hour in vitro with either LMK235 or vehicle control prior to recording (FIG. 7).
(§2) Neurons with a diameter of <30 μm were identified by infrared differential interference contrast (IR-DIC) imaging with a microscope connected to an Olympus digital camera. Current clamp recordings were performed using a Molecular Devices Multiclamp 700B (Scientifica, UK). Signals were filtered at 5 KHz, acquired at 50 KHz using a Molecular Devices 1550B converter (Scientifica, UK) and recorded using Clampex 11 software (Molecular Devices, Scientifica, UK). Electrodes were pulled with a Zeitz puller (Werner Zeitz, Martinsreid, Germany) from borosilicate thick glass (GC150F, Sutter Instruments). Electrode resistance was 5-8 MΩ. Bridge balance was applied to all recordings. Intracellular solution contained (in mM) 125 K-gluconate, 6 KCl, 10 HEPES, 0.1 EGTA, 2 Mg-ATP, pH 7.3 with KOH, and osmolarity of 290-310 mOsm. Artificial cerebrospinal fluid (aCSF) contained (in mM) 113 NaCl, 3 KCl, 25 NaHCO3, 1 NaH2PO4, 2 CaCl2), 2 MgCl2, and 11-glucose. For whole-cell current clamp recordings, to evaluate the basic input-output action potential frequency response to hyperpolarization and depolarization, DC current was injected from 0 pA to +200 pA in 10-pA increments for a duration of 500 milliseconds at the cell's intrinsic resting membrane potential. Data acquisition was sampled at 20 kHz and filtered at 2.4 kHz. Recordings with a series resistance greater than 20 MΩ were discarded, and series resistance was compensated to 70%. In response to a −100 pA hyperpolarizing pulse with 500 millisecond duration, voltage sag amplitude was measured. Sag ratio was calculated using the following equation as described previously (Fan et al., Front Cell Neurosci 2016 Mar. 24; 10:74):
(§3) where Vpeak is the maximum voltage deflection and Vss is the steady state voltage at the end of the hyperpolarizing pulse.
(§4) Male mice were euthanized three weeks after inducing the FRICT-ION model. The TG were dissected, minced, and dissociated in an enzymatic combination containing sterile, calcium-free, and magnesium-free HBSS (Cat #14170112, Gibco), papain suspension (32.7 U/mgP, Cat #LS003126; Worthington, Lakewood, NJ), L-Cysteine (Cat #C7352-25g, Sigma), and saturated bicarbonate (Cat #S5761-500g, Sigma) solution. […]
(In general: In patch-clamp work, channel activity is measured electrically.)

The next experiment deals with FRICT-ION mice. Kind of experiment: Cold probe (10° C.) sensitivity test, FRICT-ION model. As to conditions: 5 mg/kg, vs FRICT-ION+vehicle. In kind it is in vivo, mouse. The text has this: (§5) The FRICT-ION chronic neuropathic pain model combines the chemical irritation of chromic gut suture with some physical compression of the maxillary branch (V2) of the trigeminal nerve. FRICT-ION model was induced in 9-week-old mice anesthetized briefly with isoflurane (2-3%). Intraoral surgical incision was made with a small scalpel puncture at the buccal cheek crease. A piece of chromic gut suture (3 mm length, 4-0) was placed parallel to the infraorbital nerve (ION) and pushed into the tight space to follow the trigeminal nerve as it passes into the foramen rotundum of the skull. The model simulates blunt force traumatic injury to the nerve, residual wound debris, or other irritation.
On the day of FRICT-ION model induction in BALBc mice, LMK235 was administered and treatment was continued for seven days. Withdrawal thresholds were determined weekly with von Frey fiber stimulation on the snout. Cold sensitivity on the snout and anxiety were tested once prior to experiment end in week 8-9.
Mechanical and cold sensitivity was modified for face as previously described (Montera M A, Westlund K N, Bio-protocol2020 April 20; 10(8):e3591-e3591; Lyons et al., Neuroscience 2015 Jun. 4; 295:126-138; Ma et al., Mol Brain 2012 Dec. 28; 5:44; Montera et al., Channels (Austin). 2021 December; 15(1):31-37). […]

In experiment [2] the test system is small (<30 μm) TG neurons from naïve mice. Kind of experiment: Whole-cell patch-clamp electrophysiology, TG neurons from naïve mice. The class given is cell-based, mouse. As to conditions: 13 μM for one hour vs 0.1% DMSO. As for the experimental part:
as §1, §2, §3, §4

The test system of experiment [3] is BALBc mice with FRICT-ION nerve injury. Kind of experiment: von Frey mechanical threshold, FRICT-ION trigeminal nerve injury model. In kind it is in vivo, mouse. The note with it: male and female BALBc FRICT-ION mice, 5 mg/kg s.c. daily in week 3, vs vehicle.
From the text: as §5, with “irritation. […]” for “irritation.”
[…] Withdrawal thresholds were determined weekly with von Frey fiber stimulation on the snout. […]
Mechanical and cold sensitivity was modified for face as previously described (Montera M A, Westlund K N, Bio-protocol2020 April 20; 10(8):e3591-e3591; Lyons et al., Neuroscience 2015 Jun. 4; 295:126-138; Ma et al., Mol Brain 2012 Dec. 28; 5:44; Montera et al., Channels (Austin). 2021 December; 15(1):31-37). Briefly, animals were gently restrained and the mechanical threshold for nocifensive head withdrawal was determined using calibrated von Frey filaments (0.008 g-6.0 g) using the Up-Down method (Chaplan et al., J Neurosci Methods 1994 July; 53(1):55-63; FIG. 2). […]

As for `Cc1cc(C)cc(C(=O)NOCCCCCC(=O)NO)c1` [LMK235, N-[[6-(Hydroxyamino)-6-oxohexyl]oxy]-3,5-dimethyl-benzamide], in experiment [1], the “distribution of high (>200 pA) vs low (<200 pA) threshold TG neurons” value is “higher proportion of high threshold (>200 pA) neurons”, the “resting membrane potential (RMP)” value is listed as “not significantly altered; also recorded: no significant differences”, the rheobase entry is “not significantly altered; also recorded: no significant differences” and the sag ratio entry is given as “significantly lower; also recorded: reduced”. Besides, in the experiment on FRICT-ION mice, the “cold hypersensitivity (10° C. cold probe on snout)” value was “significantly improved; also recorded: reduced”. In experiment [2], the electrophysiological properties result was “not significantly altered”, the “resting membrane potential (RMP)” value is “no significant differences”, the rheobase entry is “no significant differences” and the sag ratio result is reported as “no effect”. The “mechanical threshold / von Frey hypersensitivity” value in experiment [3] was “reverses von Frey hypersensitivity; also recorded: restored mechanical threshold to baseline”.
